# Reference: patent US8436006B2, “2-amino-quinazoline derivatives useful as inhibitors of β-secretase (BACE)” (Jansssen Pharmaceutica N.V., priority 2004, dated 2013)
# Key:
# β-secretase (BACE) [1] = molecular target: T1, β-secretase (BACE) (Homo sapiens, UniProt P56817); test: BACE % Inhibition Assay (Example 161), (Aedens)-[…]-(Dabcyl K-amide) substrate; assay type: biochemical; settings: % error ±10%
# T1 construct: purchased Panvera
# Experimental: The following reagents were used in this assay: sodium acetate, PEG8000 (Sigma), DMSO, HEPES, (Aedens)-[…]-(Dabcyl K-amide) substrate, β-secretase (BACE) (Panvera), and 96-well plate (HE microplate, Molecular Devices).
# The substrate stock solution was prepared in DMSO as a 10 mg/mL solution. The substrate working solution was prepared by diluting the 10 mg/mL stock solution with substrate assay buffer to a final concentration of 300 μg/mL. The β-secretase (BACE) working solution was prepared by diluting a 0.83 mg/mL BACE stock solution with enzyme assay buffer to a final concentration of 4 μg/mL.
# Test compounds were dissolved in DMSO to 10 mM.
# The screening procedure for this assay was as follows: 15 μL of BACE working solution was pipetted into each well of a 96-well plate. To each well was then pipetted 2 μL of test compound at the selected concentration. Test compound and BACE were then mixed with a pipettor and incubated for 20 min at room temperature. To each well was then added 10 μL of the substrate working solution. The plates were then incubated for 1 hour at room temperature.
# The procedure for the blank was as follows. 15 μL of assay buffer was pipetted into each well to be used as a blank control. To each well was then added 2 μL of vehicle and 10 μL of substrate working solution. The plates were then incubated for 1 hour at room temperature.
# The procedure for the positive control was as follows: 15 μl of BACE working solution was pipetted into each well to be used as a positive control. To each well was then pipetted 2 μL of vehicle. Vehicle and BACE were then mixed with a pipettor and incubated for 20 min at room temperature. To each well was then added 10 μL of the substrate working solution. The plates were then incubated for 1 hour at room temperature.
# For test compounds, % inhibition was determined at each concentration as follows: % Inhibition=[[…]][FI(positive control)−FI(negative control)]
# β-secretase (BACE) [2] = molecular target: T1, β-secretase (BACE); test: BACE FS1% Inhibition Assay (Example 160); assay type: biochemical
# Experimental: The following reagents were used in this assay: sodium acetate, PEB8000 (Sigma), DMSO, HEPES, FS1 substrate [[…]], β-secretase (BACE) (Panvera), and 96-well plate (HE microplate, Molecular Devices). […] The FS1-substrate stock solution was prepared in DMSO as a 10 mg/mL solution. The FS1-substrate working solution was prepared by diluting the 10 mg/mL stock solution with substrate assay buffer to a final concentration of 300 μg/mL. The β-secretase (BACE) working solution was prepared by diluting a 0.83 mg/mL BACE stock solution with enzyme assay buffer to a final concentration of 4 μg/mL. Test compounds were dissolved in DMSO to 10 mM. […] The screening procedure for this assay was as follows: 15 μL of BACE working solution was pipetted into each well of a 96-well plate. To each well was the pipetted 2 μL of test compound at the selected concentration. Test compound and BACE were then mixed with a pipettor and incubated for 20 min at room temperature. To each well was then added 10 μL of the FS1 substrate working solution. The plates were then incubated for 1 hour at room temperature. […] The procedure for the blank was as follows. 15 μL of assay buffer was pipetted into each well to be used as a blank control. To each well was then added 2 μL of vehicle and 10 μL of FS1-substrate working solution. The plates were then incubated for 1 hour at room temperature. […] The procedure for the positive control was as follows: 15 μL of BACE working solution was pipetted into each well to be used as a positive control. To each well was then pipetted 2 μL of vehicle. Vehicle and BACE were then mixed with a pipettor and incubated for 20 min at room temperature. To each well was then added 10 μL of the FS1 substrate working solution. The plates were then incubated for 1 hour at room temperature. […] For test compounds, % inhibition was determined at each concentration as follows: [formula]
# T1 sequence (P56817 46-501): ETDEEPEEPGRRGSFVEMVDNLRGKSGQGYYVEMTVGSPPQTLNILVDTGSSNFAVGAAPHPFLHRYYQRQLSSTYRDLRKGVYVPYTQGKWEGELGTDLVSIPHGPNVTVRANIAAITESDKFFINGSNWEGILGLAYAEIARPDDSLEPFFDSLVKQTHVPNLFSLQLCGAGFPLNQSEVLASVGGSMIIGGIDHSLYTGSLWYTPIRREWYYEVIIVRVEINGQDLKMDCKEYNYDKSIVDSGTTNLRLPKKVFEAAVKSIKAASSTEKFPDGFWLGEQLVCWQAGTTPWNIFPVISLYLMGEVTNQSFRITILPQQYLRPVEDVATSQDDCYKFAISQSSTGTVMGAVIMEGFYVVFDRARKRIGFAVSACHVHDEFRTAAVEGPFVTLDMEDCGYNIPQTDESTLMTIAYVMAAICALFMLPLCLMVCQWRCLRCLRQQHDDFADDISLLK
SMILES,% Inhibition (β-secretase (BACE) [1]; 0.3 μM test compound),% Inhibition (β-secretase (BACE) [1]; 1 μM test compound),% Inhibition (β-secretase (BACE) [1]; 3 μM test compound),% Inhibition (FS) (β-secretase (BACE) [2]; 0.3 μM test compound),% Inhibition (FS) (β-secretase (BACE) [2]; 1 μM test compound),% Inhibition (FS) (β-secretase (BACE) [2]; 3 μM test compound),% Inhibition (β-secretase (BACE) [1]; 10 μM test compound)
CC(C)CC(=O)NCC(C1CCCCC1)N1Cc2cc(Oc3ccccc3)ccc2N=C1N (stereo not shown) [Compound 389],85%,112%,120%,–,–,–,–
Cc1ccccc1-c1ccc2c(c1)CN(CCNC(=O)CCC(C)C)C(N)=N2 [Compound 661],–,–,–,68%,98%,–,–
CCCC(CNC(=O)C1CCCCC1)N1Cc2cc(Oc3ccccc3)ccc2N=C1N (stereo not shown) [Compound 343],81%,–,–,–,–,–,–
CCCC(CNC(=O)OC(C)(C)C)N1Cc2cc(Oc3ccccc3)ccc2N=C1N (stereo not shown) [Compound 318],32%,70%,103%,–,–,–,–
NC1=Nc2ccc(Oc3ccccc3)cc2CN1Cc1cccc(C(=O)N(C2CCCCC2)C2CCCCC2)c1 [Compound 98],–,–,76%,49%,93%,114%,99%
NC1=Nc2ccc(Oc3ccccc3)cc2CN1C(CNC(=O)C1CCCCC1)c1ccccc1 (stereo not shown) [Compound 342],50%,93%,–,–,–,–,–
NC1=Nc2ccc(Oc3ccccc3)cc2CN1C(CNC(=O)CCC1CCCC1)C1CCCCC1 (stereo not shown) [Compound 366],64%,–,–,–,–,–,–
COc1ccc(C(CCC(=O)N(C)C2CCCCC2)N2Cc3cc(Oc4ccccc4)ccc3N=C2N)cc1 (stereo not shown) [Compound 298],–,–,–,<30%,75%,110%,–

# Second part, the molecule after the results:
% Inhibition (β-secretase (BACE) [1]; 0.3 μM test compound),% Inhibition (β-secretase (BACE) [1]; 1 μM test compound),% Inhibition (β-secretase (BACE) [1]; 3 μM test compound),% Inhibition (FS) (β-secretase (BACE) [2]; 0.3 μM test compound),% Inhibition (FS) (β-secretase (BACE) [2]; 1 μM test compound),% Inhibition (FS) (β-secretase (BACE) [2]; 3 μM test compound),% Inhibition (β-secretase (BACE) [1]; 10 μM test compound),SMILES
–,–,–,31%,<30%,81%,–,COc1ccccc1-c1ccc2c(c1)CN([C@@H](CCC(=O)N(C)Cc1cc(-c3ccccc3)on1)C1CCCCC1)C(N)=N2 [Compound 719]
–,–,–,8%,35%,89%,–,CN(C(=O)CC[C@@H](C1CCCCC1)N1Cc2ccc(Oc3ccccc3)cc2N=C1N)C1CCCCC1 [Compound 754]
–,–,–,33%,39%,72%,–,COc1ccccc1-c1ccc2c(c1)CN([C@@H](CCC(=O)N(C)Cc1cnn(-c3ccccc3)c1)C1CCCCC1)C(N)=N2 [Compound 717]
–,–,–,<30%,<30%,84%,–,Cc1ccccc1-c1ccc2c(c1)CN(CCNC(=O)C1CCC(C(F)(F)F)CC1)C(N)=N2 (stereo not shown) [Compound 694]
–,–,–,<30%,56%,97%,–,CNC(=O)C1CCC(N(C)C(=O)CCC(C2CCCCC2)N2Cc3cc(Oc4ccccc4)ccc3N=C2N)CC1 (stereo not shown) [Compound 765]
–,–,–,<30%,36%,81%,–,NC1=Nc2ccc(-c3ccccc3F)cc2CN1CCNC(=O)C1CCC(C(F)(F)F)CC1 (stereo not shown) [Compound 688]
–,–,–,67%,100%,–,–,CC(CC(=O)NCCN1Cc2cc(-c3ccccc3F)ccc2N=C1N)C(F)(F)F (stereo not shown) [Compound 681]
